According to patent publication US20240219394A1, “METHOD FOR MEASURING RESPONSE OF OLFACTORY RECEPTOR TO SUBSTANCE” (AJINOMOTO CO., INC., priority 2021, published 2024):

System: control cells (HEK293T cells transfected with the empty vector Rho-pME18S)
Assay: Luciferase assay: response of control cells to adenosine
Assay type: cell-based, human
Conditions: FIG. 1
Experimental: HEK293T cells expressing each of the 352 kinds of olfactory receptors were prepared according to the following procedure. […] The gene mixture and transfection reagent mixture were mixed, dispensed into each well of a poly-D-lysine-coated 384-well plate in a volume of 12.5 μL, and allowed to stand for 15 minutes in a clean bench. The HEK293T cells inoculated in 10-cm petri dishes on the previous day (2.5×10^6 cells/10 cm petri dish) were prepared at a density of 1.2×10^5 cells/mL, inoculated into each well of the 384-well plate in a volume of 25 μL, and cultured overnight in an incubator maintained at 37° C. and 5% C02. […]
The 352 olfactory receptors expressed in HEK293T cells couple with Golf to activate adenylate cyclase, thereby increasing the amount of intracellular cAMP. In this example, responses of the olfactory receptors to the test substances were measured by using a luciferase reporter gene assay, in which increase in intracellular cAMP amount is monitored as an increase in firefly luciferase-derived luminescence. […] In addition, luminescence value derived from Renilla luciferase was used as an internal standard to correct errors due to differences of gene transfer efficiency and cell number among the wells. […]

Nc1ncnc2c1ncn2[C@@H]1O[C@H](CO)[C@@H](O)[C@H]1O [adenosine]
Response of control cells to adenosine (Luc/hRluc value, increase in cAMP): caused increase in cAMP
